# According to patent US20240215577A1, “FUNGICIDAL PYRIDONES” (FMC Corporation, priority 2021, published 2024):
# Test system: Zymoseptoria tritici
# Assay: Test A: wheat leaf blotch, preventive spray on wheat seedlings
# Assay type: in vivo
# Settings: 50 ppm, 100 = 100% disease control, 0 = no control
# Description: (§1) General protocol for preparing test suspensions for Tests A-F: the test compounds were first dissolved in acetone in an amount equal to 3% of the final volume and then suspended at the desired concentration (in ppm) in acetone and purified water (50/50 mix by volume) containing 250 ppm of the surfactant PEG400 (polyhydric alcohol esters). The resulting test suspensions were then used in Tests A-F.
# (§2) The test solution was sprayed to the point of run-off on wheat seedlings. The following day the seedlings were inoculated with a spore suspension of Zymoseptoria tritici (the causal agent of wheat leaf blotch) and incubated in a saturated atmosphere at 24° C. for 48 h, and then moved to a growth chamber at 20° C. for 17 days, after which time disease ratings were made.
# (§3) A rating of 100 indicates 100% disease control and a rating of 0 indicates no disease control (relative to the controls). A dash (-) indicates the compound was not tested.
row,Structure (SMILES),Test A disease control rating [%]
1,COc1ccc(Cl)c(-c2cn(C)c(=O)cc2-c2ccccc2Br)c1 [Compound 62],37
2,Cc1ccsc1-c1cn(C)c(=O)c(Cl)c1-c1ccc(F)cc1Cl [Compound 63],84
3,COc1ccc(Cl)c(-c2cn(C)c(=O)c(Cl)c2-c2cccc(F)c2F)c1 [Compound 64],98
4,COc1ccc(Cl)c(-c2cn(C)c(=O)cc2-c2cccc(F)c2F)c1 [Compound 65],8
5,Cn1cc(-c2cccc([N+](=O)[O-])c2)c(-c2ccc(F)cc2Cl)c(Cl)c1=O [Compound 66],42
6,COc1ccc(-c2cc(=O)n(C)cc2-c2cc(OC)ccc2Cl)c(Cl)c1 [Compound 68],61
7,COc1ccc(-c2c(-c3cc(OC)ccc3Cl)cn(C)c(=O)c2Cl)c(Cl)c1 [Compound 69],100
8,COc1ccc(Cl)c(-c2cn(C)c(=O)cc2-c2ccccc2C(F)(F)F)c1 [Compound 70],50
9,COc1ccc(Cl)c(-c2cn(C)c(=O)c(Cl)c2-c2ccc(F)cc2Br)c1 [Compound 71],100
10,CCn1cc(-c2cc(OC)ccc2Cl)c(-c2ccc(F)cc2Cl)c(Cl)c1=O [Compound 75],97
11,CCCn1cc(-c2cc(OC)ccc2Cl)c(-c2ccc(F)cc2Cl)c(Cl)c1=O [Compound 76],63

# Same assay, conditions: Zymoseptoria tritici, 250 ppm, 100 = 100% disease control, 0 = no control, read-out: Test A disease control rating
row,Structure (SMILES),pest or weed control at 250 ppm [%]
1,"COc1cc(OC)cc(-c2cn(C)c(=O)cc2-c2ccc(F)cc2Cl)c1 [Compound 53, 4-(2-chloro-4-fluorophenyl)-5-(3,5-dimethoxyphenyl)-1-methyl-2(1H)-pyridinone]",100

# Test system: Puccinia recondita f. sp. tritici
# Assay: Test B: wheat leaf rust, preventive spray on wheat seedlings
# Assay type: in vivo
# Settings: 50 ppm, 100 = 100% disease control, 0 = no control
# Description: as §1
# as §2, with “Puccinia recondita f. sp.” for “Zymoseptoria”, “rust)” for “blotch)”, “20°” for “24°”, “24” for “48”, “7” for “17”, “time visual” for “time”
# as §3
row,Structure (SMILES),Test B disease control rating [%]
1,COc1ccc(Cl)c(-c2cn(C)c(=O)cc2-c2ccccc2Br)c1 [Compound 62],74
2,Cc1ccsc1-c1cn(C)c(=O)c(Cl)c1-c1ccc(F)cc1Cl [Compound 63],80
3,COc1ccc(Cl)c(-c2cn(C)c(=O)c(Cl)c2-c2cccc(F)c2F)c1 [Compound 64],100
4,COc1ccc(Cl)c(-c2cn(C)c(=O)cc2-c2cccc(F)c2F)c1 [Compound 65],95
5,Cn1cc(-c2cccc([N+](=O)[O-])c2)c(-c2ccc(F)cc2Cl)c(Cl)c1=O [Compound 66],80
6,COc1ccc(-c2cc(=O)n(C)cc2-c2cc(OC)ccc2Cl)c(Cl)c1 [Compound 68],98
7,COc1ccc(-c2c(-c3cc(OC)ccc3Cl)cn(C)c(=O)c2Cl)c(Cl)c1 [Compound 69],100
8,COc1ccc(Cl)c(-c2cn(C)c(=O)cc2-c2ccccc2C(F)(F)F)c1 [Compound 70],68
9,COc1ccc(Cl)c(-c2cn(C)c(=O)c(Cl)c2-c2ccc(F)cc2Br)c1 [Compound 71],100
10,CCn1cc(-c2cc(OC)ccc2Cl)c(-c2ccc(F)cc2Cl)c(Cl)c1=O [Compound 75],97
11,CCCn1cc(-c2cc(OC)ccc2Cl)c(-c2ccc(F)cc2Cl)c(Cl)c1=O [Compound 76],55

# Same assay, conditions: Puccinia recondita, 250 ppm, 100 = 100% disease control, 0 = no control, read-out: Test B disease control rating
row,Structure (SMILES),pest or weed control at 250 ppm [%]
1,"COc1cc(OC)cc(-c2cn(C)c(=O)cc2-c2ccc(F)cc2Cl)c1 [Compound 53, 4-(2-chloro-4-fluorophenyl)-5-(3,5-dimethoxyphenyl)-1-methyl-2(1H)-pyridinone]",97

# Test system: Blumeria graminis f. sp. tritici
# Assay: Test C: wheat powdery mildew, preventive spray on wheat seedlings
# Assay type: in vivo
# Settings: 50 ppm, 100 = 100% disease control, 0 = no control
# Description: as §1
# The test suspension was sprayed to the point of run-off on wheat seedlings. The following day the seedlings were inoculated with a spore dust of Blumeria graminis f. sp. tritici, (also known as Eysiphe graminis f. sp. tritici, the causal agent of wheat powdery mildew) and incubated in a growth chamber at 20° C. for 8 days, after which time visual disease ratings were made.
# as §3
row,Structure (SMILES),Test C disease control rating [%]
1,COc1ccc(Cl)c(-c2cn(C)c(=O)cc2-c2ccccc2Br)c1 [Compound 62],0
2,Cc1ccsc1-c1cn(C)c(=O)c(Cl)c1-c1ccc(F)cc1Cl [Compound 63],0
3,COc1ccc(Cl)c(-c2cn(C)c(=O)c(Cl)c2-c2cccc(F)c2F)c1 [Compound 64],87
4,COc1ccc(Cl)c(-c2cn(C)c(=O)cc2-c2cccc(F)c2F)c1 [Compound 65],0
5,Cn1cc(-c2cccc([N+](=O)[O-])c2)c(-c2ccc(F)cc2Cl)c(Cl)c1=O [Compound 66],0
6,COc1ccc(-c2cc(=O)n(C)cc2-c2cc(OC)ccc2Cl)c(Cl)c1 [Compound 68],0
7,COc1ccc(-c2c(-c3cc(OC)ccc3Cl)cn(C)c(=O)c2Cl)c(Cl)c1 [Compound 69],99
8,COc1ccc(Cl)c(-c2cn(C)c(=O)cc2-c2ccccc2C(F)(F)F)c1 [Compound 70],83
9,COc1ccc(Cl)c(-c2cn(C)c(=O)c(Cl)c2-c2ccc(F)cc2Br)c1 [Compound 71],100
10,CCn1cc(-c2cc(OC)ccc2Cl)c(-c2ccc(F)cc2Cl)c(Cl)c1=O [Compound 75],0
11,CCCn1cc(-c2cc(OC)ccc2Cl)c(-c2ccc(F)cc2Cl)c(Cl)c1=O [Compound 76],0

# Same assay, conditions: Blumeria graminis, 250 ppm, 100 = 100% disease control, 0 = no control, read-out: Test C disease control rating
row,Structure (SMILES),pest or weed control at 250 ppm [%]
1,"COc1cc(OC)cc(-c2cn(C)c(=O)cc2-c2ccc(F)cc2Cl)c1 [Compound 53, 4-(2-chloro-4-fluorophenyl)-5-(3,5-dimethoxyphenyl)-1-methyl-2(1H)-pyridinone]",56

# Test system: Phakopsora pachyrhizi
# Assay: Test D: Asian soybean rust, preventive spray on soybean seedlings
# Assay type: in vivo
# Settings: 50 ppm, 100 = 100% disease control, 0 = no control
# Description: as §1
# The test solution was sprayed to the point of run-off on soybean seedlings. The following day the seedlings were inoculated with a spore suspension of Phakopsora pachyrhizi (the causal agent of Asian soybean rust) and incubated in a saturated atmosphere at 22° C. for 24 h and then moved to a growth chamber at 22° C. for 8 days, after which time visual disease ratings were made.
# as §3
row,Structure (SMILES),Test D disease control rating [%]
1,COc1ccc(Cl)c(-c2cn(C)c(=O)cc2-c2ccccc2Br)c1 [Compound 62],0
2,Cc1ccsc1-c1cn(C)c(=O)c(Cl)c1-c1ccc(F)cc1Cl [Compound 63],0
3,COc1ccc(Cl)c(-c2cn(C)c(=O)c(Cl)c2-c2cccc(F)c2F)c1 [Compound 64],87
4,COc1ccc(Cl)c(-c2cn(C)c(=O)cc2-c2cccc(F)c2F)c1 [Compound 65],0
5,Cn1cc(-c2cccc([N+](=O)[O-])c2)c(-c2ccc(F)cc2Cl)c(Cl)c1=O [Compound 66],0
6,COc1ccc(-c2cc(=O)n(C)cc2-c2cc(OC)ccc2Cl)c(Cl)c1 [Compound 68],0
7,COc1ccc(-c2c(-c3cc(OC)ccc3Cl)cn(C)c(=O)c2Cl)c(Cl)c1 [Compound 69],79
8,COc1ccc(Cl)c(-c2cn(C)c(=O)cc2-c2ccccc2C(F)(F)F)c1 [Compound 70],0
9,COc1ccc(Cl)c(-c2cn(C)c(=O)c(Cl)c2-c2ccc(F)cc2Br)c1 [Compound 71],73
10,CCn1cc(-c2cc(OC)ccc2Cl)c(-c2ccc(F)cc2Cl)c(Cl)c1=O [Compound 75],0
11,CCCn1cc(-c2cc(OC)ccc2Cl)c(-c2ccc(F)cc2Cl)c(Cl)c1=O [Compound 76],0

# Same assay, conditions: Phakopsora pachyrhizi, 216 h, 250 ppm, 100 = 100% disease control, 0 = no control, read-out: Test D disease control rating
row,Structure (SMILES),pest or weed control at 250 ppm [%]
1,"COc1cc(OC)cc(-c2cn(C)c(=O)cc2-c2ccc(F)cc2Cl)c1 [Compound 53, 4-(2-chloro-4-fluorophenyl)-5-(3,5-dimethoxyphenyl)-1-methyl-2(1H)-pyridinone]",59

# Test system: Botrytis cinerea
# Assay: Test E: tomato Botrytis, preventive spray on tomato seedlings
# Assay type: in vivo
# Settings: 50 ppm, 100 = 100% disease control, 0 = no control
# Description: as §1
# (§4) The test suspension was sprayed to the point of run-off on tomato seedlings. The following day the seedlings were inoculated with a spore suspension of Botrytis cinerea (the causal agent of tomato Botrytis) and incubated in a saturated atmosphere at 20° C. for 48 h, and then moved to a growth chamber at 24° C. for 3 days, after which time visual disease ratings were made.
# as §3
row,Structure (SMILES),Test E disease control rating [%]
1,COc1ccc(Cl)c(-c2cn(C)c(=O)cc2-c2ccccc2Br)c1 [Compound 62],98
2,Cc1ccsc1-c1cn(C)c(=O)c(Cl)c1-c1ccc(F)cc1Cl [Compound 63],88
3,COc1ccc(Cl)c(-c2cn(C)c(=O)c(Cl)c2-c2cccc(F)c2F)c1 [Compound 64],96
4,COc1ccc(Cl)c(-c2cn(C)c(=O)cc2-c2cccc(F)c2F)c1 [Compound 65],96
5,Cn1cc(-c2cccc([N+](=O)[O-])c2)c(-c2ccc(F)cc2Cl)c(Cl)c1=O [Compound 66],79
6,COc1ccc(-c2cc(=O)n(C)cc2-c2cc(OC)ccc2Cl)c(Cl)c1 [Compound 68],88
7,COc1ccc(-c2c(-c3cc(OC)ccc3Cl)cn(C)c(=O)c2Cl)c(Cl)c1 [Compound 69],98
8,COc1ccc(Cl)c(-c2cn(C)c(=O)cc2-c2ccccc2C(F)(F)F)c1 [Compound 70],93
9,COc1ccc(Cl)c(-c2cn(C)c(=O)c(Cl)c2-c2ccc(F)cc2Br)c1 [Compound 71],96
10,CCn1cc(-c2cc(OC)ccc2Cl)c(-c2ccc(F)cc2Cl)c(Cl)c1=O [Compound 75],98
11,CCCn1cc(-c2cc(OC)ccc2Cl)c(-c2ccc(F)cc2Cl)c(Cl)c1=O [Compound 76],96

# Same assay, conditions: Botrytis cinerea, 250 ppm, 100 = 100% disease control, 0 = no control, read-out: Test E disease control rating
row,Structure (SMILES),pest or weed control at 250 ppm [%]
1,"COc1cc(OC)cc(-c2cn(C)c(=O)cc2-c2ccc(F)cc2Cl)c1 [Compound 53, 4-(2-chloro-4-fluorophenyl)-5-(3,5-dimethoxyphenyl)-1-methyl-2(1H)-pyridinone]",99

# Test system: Alternaria solani
# Assay: Test F: tomato early blight, preventive spray on tomato seedlings
# Assay type: in vivo
# Settings: 50 ppm, 100 = 100% disease control, 0 = no control
# Description: as §1
# as §4, with “Alternaria solani” for “Botrytis cinerea”, “early blight)” for “Botrytis)”, “27°” for “20°”, “20°” for “24°”
# as §3
row,Structure (SMILES),Test F disease control rating [%]
1,COc1ccc(Cl)c(-c2cn(C)c(=O)cc2-c2ccccc2Br)c1 [Compound 62],0
2,Cc1ccsc1-c1cn(C)c(=O)c(Cl)c1-c1ccc(F)cc1Cl [Compound 63],0
3,COc1ccc(Cl)c(-c2cn(C)c(=O)c(Cl)c2-c2cccc(F)c2F)c1 [Compound 64],100
4,COc1ccc(Cl)c(-c2cn(C)c(=O)cc2-c2cccc(F)c2F)c1 [Compound 65],0
5,Cn1cc(-c2cccc([N+](=O)[O-])c2)c(-c2ccc(F)cc2Cl)c(Cl)c1=O [Compound 66],0
6,COc1ccc(-c2cc(=O)n(C)cc2-c2cc(OC)ccc2Cl)c(Cl)c1 [Compound 68],73
7,COc1ccc(-c2c(-c3cc(OC)ccc3Cl)cn(C)c(=O)c2Cl)c(Cl)c1 [Compound 69],100
8,COc1ccc(Cl)c(-c2cn(C)c(=O)cc2-c2ccccc2C(F)(F)F)c1 [Compound 70],0
9,COc1ccc(Cl)c(-c2cn(C)c(=O)c(Cl)c2-c2ccc(F)cc2Br)c1 [Compound 71],99
10,CCn1cc(-c2cc(OC)ccc2Cl)c(-c2ccc(F)cc2Cl)c(Cl)c1=O [Compound 75],0
11,CCCn1cc(-c2cc(OC)ccc2Cl)c(-c2ccc(F)cc2Cl)c(Cl)c1=O [Compound 76],0

# Same assay, conditions: Alternaria solani, 250 ppm, 100 = 100% disease control, 0 = no control, read-out: Test F disease control rating
row,Structure (SMILES),pest or weed control at 250 ppm [%]
1,"COc1cc(OC)cc(-c2cn(C)c(=O)cc2-c2ccc(F)cc2Cl)c1 [Compound 53, 4-(2-chloro-4-fluorophenyl)-5-(3,5-dimethoxyphenyl)-1-methyl-2(1H)-pyridinone]",0
